Data taken from patent US12384777B2 (Tay Therapeutics Limited, priority 2019, dated 2025).
Where two headings read alike, the source gives them in different places.

Tests used:
BRD4 BD1 = BRD4 BD1 (Homo sapiens (Human), UniProt O60885); assay: Bromodomain binding assay (T7 phage display, qPCR), BRD4 BD1; conditions: for Kd: read-out: BRD4 BD1 Kd
BRD3(1) = BRD3(1) (Homo sapiens (Human), UniProt Q15059); assay: Bromodomain binding assay, BRD3(1); conditions: single point, screened at 30 times Kd; lower numbers indicate stronger hits
Procedure: T7 phage strains displaying bromodomains were grown in parallel in 24-well blocks in an E. coli host derived from the BL21 strain. E. coli were grown to log-phase and infected with T7 phage from a frozen stock (multiplicity of infection=0.4) and incubated with shaking at 32° C. until lysis (90-150 min). The lysates were centrifuged (5,000×g) and filtered (0.2 μm) to remove cell debris. Streptavidin-coated magnetic beads were treated with biotinylated small molecule or acetylated peptide ligands for 30 min at RT to generate affinity resins for bromodomain assays. The ligated beads were blocked with excess biotin and washed with blocking buffer (SeaBlock (Pierce), 1% BSA, 0.05% Tween 20, 1 mM DTT) to remove unbound ligand and to reduce non-specific phage binding. Binding reactions were assembled by combining bromodomains, ligated affinity beads, and test compounds in 1× binding buffer (16% SeaBlock, 0.32×PBS, 0.02% BSA, 0.04% Tween 20, 0.004% Sodium azide, 7.9 mM DTT). Test compounds were prepared as 1000× stocks in 100% DMSO and subsequently diluted 1:25 in MEG. The compounds were then diluted directly into the assays such that the final concentrations of DMSO and MEG were 0.1% and 2.4%, respectively. All reactions were performed in polypropylene 384-well plates in a final volume of 0.02 ml. The assay plates were incubated at RT with shaking for 1 hr and the affinity beads were washed with wash buffer (1×PBS, 0.05% Tween 20). The beads were then re-suspended in elution buffer (1×PBS, 0.05% Tween 20, 2 μM non-biotinylated affinity ligand) and incubated at RT with shaking for 30 min. The bromodomain concentration in the eluates was measured by quantitative polymerase chain reaction (qPCR).
An 11-point 3-fold serial dilution of each test compound was prepared in 100% DMSO at 1000× final test concentration. […] Most dissociation constants were determined using a compound top concentration=10,000 nM. If the initial dissociation constant determined was <0.169 nM (the lowest concentration tested), the measurement was repeated with a serial dilution starting at a lower top concentration. […]

[1] = tested on: primary keratinocytes stimulated by polyinosinic:polycytidylic acid; assay: Cellular activity broad panel: reduction of cytokine/chemokine levels in stimulated primary keratinocytes; format: cell-based; conditions: Homo sapiens, Keratinocyte
Procedure: • 1. Seed Primary Human Keratinocytes cells (PHK) at 9000 cells/well in a flat bottom 96 well plate. • 2. […] Cells are cultured for 24 hr prior to TLR ligand stimulation (polyinosinic:polycytidylic acid). • 4. Cells are treated with 20 μg/mL polyinosinic:polycytidylic acid for 48 hrs in 180 μL of media and treated for different compounds or controls. • 5. Supernatant is collected and Chemokine and Cytokines analysis is performed by Magpix-Luminex. Immunoassay Procedure Day 1 • 1. Add 200 μL of Assay Buffer per well. Shake 10 min, RT. Decant. • 2. Add 25 μL of Standard or Control to the appropriate wells. • 3. Add 25 μL of Assay Buffer to background and sample wells. • 4. Add 25 μL of cell media to background, standard and control wells. • 5. Add 25 μL neat samples to sample wells. • 6. Add 25 μL of Beads to each well. • 7. Incubate overnight (16-18 hr) at 4° C. Day 2 • 8. Remove well contents and wash 2× with 200 μL Wash buffer. • 9. Add 25 μL of Detection Antibodies per well. • 10. Incubate 1 hr at RT (20-25° C.). • 11. […] Incubate for 30 min at RT. • 13. Remove well contents and wash 2× with 200 μL Wash buffer. • 14. Add 150 μL of Wash Buffer per well. Resuspend the beads on a plate shaker for 5 min. • 15. Read on Luminex 100 μl (50 beads per bead set).

[2] = tested on: CD4+ T-cells stimulated by CD2, CD3 and CD28 antibodies; assay: Cellular activity IL-4: reduction of IL-4 levels in activated CD4+ T-cells; format: cell-based, human; conditions: Homo sapiens, T-cell
Procedure: • 1. CD4^+ T-cells are isolated from cryopreserved human peripheral blood mononuclear cells (PBMCs) using EasySep™ Kit (Cat. No. 17952, Stemcell Technologies). • 2. CD2, CD3 and CD28 antibodies coated beads from T cell Activation/Expansion Kit (Cat. No. 130-091-441, Miltenyi Biotec) are added to the CD4^+ T-cells at a bead-to-cell ratio of 1:2. • 3. CD4^+ T-cells along with the beads are seeded at 2×10^5 cells/well in a round bottom 96-well plate and treated with different compounds and controls in a total volume of 200 μl. • 4. The cells are cultured for 48 hrs at 37° C., 5% CO2. • 5. Supernatant is collected and IL-4 is analysed by ELISA.

[3] = disease relevant markers, read-out: cellular EC50 values in stimulated human primary keratinocytes
[4] = poly I:C 20 μg/mL, 48 hrs, read-out: EC50 reduction of CCL2
[5] = poly I:C 20 μg/mL, 48 hrs, read-out: EC50 reduction of CCL20
[6] = poly I:C 20 μg/mL, 48 hrs, read-out: EC50 reduction of CCL27
[7] = poly I:C 20 μg/mL, 48 hrs, read-out: EC50 reduction of CXCL9
[8] = poly I:C 20 μg/mL, 48 hrs, read-out: EC50 reduction of GM-CSF
[9] = poly I:C 20 μg/mL, 48 hrs, read-out: EC50 reduction of IL-1a
[10] = poly I:C 20 μg/mL, 48 hrs, read-out: EC50 reduction of IL-6
[11] = poly I:C 20 μg/mL, 48 hrs, read-out: EC50 reduction of IL-8
[12] = poly I:C 20 μg/mL, 48 hrs, read-out: EC50 reduction of TNF-a
[13] = poly I:C 20 μg/mL, 48 hrs, read-out: EC50 reduction of TSLP
[14] = 48 hrs, ELISA, read-out: EC50 reduction of IL-4 levels
[15] = read-out: cellular EC50 values, reduction of IL-4 levels

Chain of BRD3(1) (Q15059 34-140): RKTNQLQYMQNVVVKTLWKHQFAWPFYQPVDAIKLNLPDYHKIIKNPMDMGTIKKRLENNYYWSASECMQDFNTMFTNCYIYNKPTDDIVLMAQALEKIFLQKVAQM

Cn1cc(-c2cccc(O)c2Oc2ccccc2)c2cc[nH]c2c1=O [Example 1, 4-(3-hydroxy-2-phenoxyphenyl)-6-methyl-1,6-dihydro-7H-pyrrolo[2,3-c]pyridin-7-one]
< 0.1 µM: EC50 [1, 3] | EC50 [2, 15]
0.01 to 0.1 µM: EC50 [1, 4] | EC50 [1, 5] | EC50 [1, 6] | EC50 [1, 10] | EC50 [1, 13]
0 % Ctrl: BRD4(1) % Ctrl (BRD4 BD1; single point, screened at 30 times Kd, lower numbers indicate stronger hits) | BRD3(1) % Ctrl (BRD3(1))
≤ 0.01 µM: Kd (BRD4 BD1) | EC50 [1, 7] | EC50 [1, 8] | EC50 [1, 9] | EC50 [1, 11] | EC50 [1, 12] | EC50 [2, 14]

Cn1cc(-c2c(O)cccc2Oc2ccccc2)c2cc[nH]c2c1=O [Example 3, 4-(2-hydroxy-6-phenoxyphenyl)-6-methyl-1,6-dihydro-7H-pyrrolo[2,3-c]pyridin-7-one]
< 0.1 µM: EC50 [1, 3] | EC50 [2, 15]
≤ 0.01 µM: EC50 [1, 4] | EC50 [1, 5] | EC50 [1, 7] | EC50 [1, 8] | EC50 [1, 9] | EC50 [1, 11] | EC50 [1, 12] | EC50 [1, 13]
0.01 to 0.1 µM: Kd (BRD4 BD1) | EC50 [1, 6] | EC50 [1, 10] | EC50 [2, 14]
